Patent US8680113B2, “BMI-1 protein expression modulators” (PTC Therapeutics, Inc., priority 2008, dated 2014)

Test system: Bmi-1
Assay: Sandwich ELISA Assay (Bmi-1 ELISA in HT-1080 cells)
Type: cell-based, human
In short: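 Lysate Bmi-1 was quantified against a recombinant GST-Bmi-1 standard (0-8000 pg/mL) by sandwich ELISA read at OD450 with OD570 reference. The ELISA used mouse monoclonal capture, rabbit anti-Bmi-1, HRP anti-rabbit IgG and TMB. Before lysis, HT-1080 cells seeded at 8000/well were exposed to compounds for 40-48 h at 37°C with 0.5% final DMSO.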

SMILES	IC50 [nM]
Cc1ccc(Nc2nccc(-c3c(C)nc4ncccn34)n2)cc1 [Cpd 168, 4-(2-methylimidazo[1,2-a]pyrimidin-3-yl)-N-(4-methylphenyl)pyrimidin-2-amine]	< 500
Cc1ccc(Nc2nccc(-c3c(C)nc4ccccn34)n2)cc1 [Cpd 169, 4-(2-methylimidazo[1,2-a]pyridin-3-yl)-N-(4-methylphenyl)pyrimidin-2-amine]	< 500
Cc1ccc(N(C)c2nccc(-c3c(C)nc4ncccn34)n2)cc1 [Cpd 170, N-methyl-4-(2-methylimidazo[1,2-a]pyrimidin-3-yl)-N-(4-methylphenyl)pyrimidin-2-amine]	< 500
CCCc1nc2ccccn2c1-c1csc(Nc2ccc(OC)c(F)c2)n1 [Cpd 171, N-(3-fluoro-4-methoxyphenyl)-4-(2-propylimidazo[1,2-a]pyridin-3-yl)-1,3-thiazol-2-amine]	< 500
CCCc1nc2ccccn2c1-c1csc(Nc2ccc(OC)c(Cl)c2)n1 [Cpd 172, N-(3-chloro-4-methoxyphenyl)-4-(2-propylimidazo[1,2-a]pyridin-3-yl)-1,3-thiazol-2-amine]	< 500
CCCc1nc2ccccn2c1-c1csc(Nc2ccc(OCC)cc2)n1 [Cpd 173, N-(4-ethoxyphenyl)-4-(2-propylimidazo[1,2-a]pyridin-3-yl)-1,3-thiazol-2-amine]	< 500
CCCc1nc2ccccn2c1-c1csc(Nc2ccc(I)cc2)n1 [Cpd 174, N-(4-iodophenyl)-4-(2-propylimidazo[1,2-a]pyridin-3-yl)-1,3-thiazol-2-amine]	< 500
CCCc1nc2ccccn2c1-c1csc(Nc2ccc3c(c2)OCO3)n1 [Cpd 175, N-(1,3-benzodioxol-5-yl)-4-(2-propylimidazo[1,2-a]pyridin-3-yl)-1,3-thiazol-2-amine]	< 500
CCCc1nc2ccccn2c1-c1csc(Nc2ccc(N(C)C)cc2)n1 [Cpd 176, N,N-dimethyl-N′-[4-(2-propylimidazo[1,2-a]pyridin-3-yl)-1,3-thiazol-2-yl]benzene-1,4-diamine]	< 500
CCCc1nc2ccccn2c1-c1csc(Nc2ccc(C(C)=O)cc2)n1 [Cpd 177, 1-(4-{[4-(2-propylimidazo[1,2-a]pyridin-3-yl)-1,3-thiazol-2-yl]amino}phenyl)ethanone]	< 500
CCCc1nc2ccccn2c1-c1csc(Nc2ccc(Cl)cc2)n1 [Cpd 178, N-(4-chlorophenyl)-4-(2-propylimidazo[1,2-a]pyridin-3-yl)-1,3-thiazol-2-amine]	< 500
CCCc1nc2ccccn2c1-c1csc(Nc2ccc(Br)cc2)n1 [Cpd 179, N-(4-bromophenyl)-4-(2-propylimidazo[1,2-a]pyridin-3-yl)-1,3-thiazol-2-amine]	< 500
CCCc1nc2ccccn2c1-c1csc(Nc2ccc(OC)cc2)n1 [Cpd 180, N-(4-methoxyphenyl)-4-(2-propylimidazo[1,2-a]pyridin-3-yl)-1,3-thiazol-2-amine]	< 500
CCCc1nc2ncccn2c1-c1csc(Nc2ccc(OC)c(F)c2)n1 [Cpd 181, N-(3-fluoro-4-methoxyphenyl)-4-(2-propylimidazo[1,2-a]pyrimidin-3-yl)-1,3-thiazol-2-amine]	< 500
CCCc1nc2ncccn2c1-c1csc(Nc2ccc3c(c2)OCO3)n1 [Cpd 182, N-(1,3-benzodioxol-5-yl)-4-(2-propylimidazo[1,2-a]pyrimidin-3-yl)-1,3-thiazol-2-amine]	< 500
CCCc1nc2ncccn2c1-c1csc(Nc2ccc(N(C)C)cc2)n1 [Cpd 183, N,N-dimethyl-N′-[4-(2-propylimidazo[1,2-a]pyrimidin-3-yl)-1,3-thiazol-2-yl]benzene-1,4-diamine]	< 500
CCCc1nc2ncccn2c1-c1csc(Nc2ccc(Br)cc2)n1 [Cpd 184, N-(4-bromophenyl)-4-(2-propylimidazo[1,2-a]pyrimidin-3-yl)-1,3-thiazol-2-amine]	< 500
CCCc1nc2ncccn2c1-c1csc(Nc2ccc(I)cc2)n1 [Cpd 185, N-(4-iodophenyl)-4-(2-propylimidazo[1,2-a]pyrimidin-3-yl)-1,3-thiazol-2-amine]	< 500
CCCc1nc2ncccn2c1-c1csc(Nc2ccc(OC)cc2)n1 [Cpd 186, N-(4-methoxyphenyl)-4-(2-propylimidazo[1,2-a]pyrimidin-3-yl)-1,3-thiazol-2-amine]	< 500
CCCc1nc2ncccn2c1-c1csc(Nc2ccccc2)n1 [Cpd 187, N-phenyl-4-(2-propylimidazo[1,2-a]pyrimidin-3-yl)-1,3-thiazol-2-amine]	< 500
COc1cccc(Nc2nc(-c3c(C)nc4ccccn34)cs2)c1 [Cpd 188, N-(3-methoxyphenyl)-4-(2-methylimidazo[1,2-a]pyridin-3-yl)-1,3-thiazol-2-amine]	< 500
Cc1ccc(N(C)c2nccc(-c3c(C)nc4ccccn34)n2)cc1 [Cpd 189, N-methyl-4-(2-methylimidazo[1,2-a]pyridin-3-yl)-N-(4-methylphenyl)pyrimidin-2-amine]	< 500

SMILES	IC50 [nM]
Cc1nc2ccccn2c1-c1ccnc(Nc2cccc(O)c2)n1 [Cpd 190, 3-{[4-(2-methylimidazo[1,2-a]pyridin-3-yl)pyrimidin-2-yl]amino}phenol]	< 500
Cc1ccc(Nc2nc(-c3c(C)nc4ccccn34)cs2)cc1 [Cpd 191, 4-(2-methylimidazo[1,2-a]pyridin-3-yl)-N-(4-methylphenyl)-1,3-thiazol-2-amine]	< 500
CCc1ccc(Nc2nc(-c3c(C)nc4ccccn34)cs2)cc1 [Cpd 192, N-(4-ethylphenyl)-4-(2-methylimidazo[1,2-a]pyridin-3-yl)-1,3-thiazol-2-amine]	< 500
CCN(CC)c1ccc(Nc2nc(-c3c(C)nc4ccccn34)cs2)cc1 [Cpd 193, N,N-diethyl-N′-[4-(2-methylimidazo[1,2-a]pyridin-3-yl)-1,3-thiazol-2-yl]benzene-1,4-diamine]	< 500
CC(=O)Nc1ccc(Nc2nc(-c3c(C)nc4ccccn34)cs2)cc1 [Cpd 194, N-(4-{[4-(2-methylimidazo[1,2-a]pyridin-3-yl)-1,3-thiazol-2-yl]amino}phenyl)acetamide]	< 500
FC(F)(F)c1nc2ccccn2c1-c1csc(Nc2ccc3c(c2)OCO3)n1 [Cpd 195, N-(1,3-benzodioxol-5-yl)-4-[2-(trifluoromethyl)imidazo[1,2-a]pyridin-3-yl]-1,3-thiazol-2-amine]	< 500
Cc1nc2ccccn2c1-c1ccnc(Nc2ccc(C(=O)O)cc2)n1 [Cpd 196, 4-{[4-(2-methylimidazo[1,2-a]pyridin-3-yl)pyrimidin-2-yl]amino}benzoic acid]	< 500
Cc1nc2ccccn2c1-c1csc(Nc2ccc(Br)cc2)n1 [Cpd 197, N-(4-bromophenyl)-4-(2-methylimidazo[1,2-a]pyridin-3-yl)-1,3-thiazol-2-amine]	< 500
Cc1nc2ccccn2c1-c1csc(Nc2ccc(Cl)c(Cl)c2)n1 [Cpd 198, N-(3,4-dichlorophenyl)-4-(2-methylimidazo[1,2-a]pyridin-3-yl)-1,3-thiazol-2-amine]	< 500
Cc1nc2ccccn2c1-c1csc(Nc2ccc(Cl)cc2)n1 [Cpd 199, N-(4-chlorophenyl)-4-(2-methylimidazo[1,2-a]pyridin-3-yl)-1,3-thiazol-2-amine]	< 500
Cc1nc2ccccn2c1-c1csc(Nc2ccc(Br)cc2Cl)n1 [Cpd 200, N-(4-bromo-2-chlorophenyl)-4-(2-methylimidazo[1,2-a]pyridin-3-yl)-1,3-thiazol-2-amine]	< 500
Cc1nc2ccccn2c1-c1csc(Nc2ccc(O)c(O)c2)n1 [Cpd 201, 4-{[4-(2-methylimidazo[1,2-a]pyridin-3-yl)-1,3-thiazol-2-yl]amino}benzene-1,2-diol]	< 500
COc1ccc(Nc2nc(-c3c(C)nc4ccccn34)cs2)cc1OC [Cpd 202, N-(3,4-dimethoxyphenyl)-4-(2-methylimidazo[1,2-a]pyridin-3-yl)-1,3-thiazol-2-amine]	< 500
Cc1nc2ccccn2c1-c1csc(Nc2ccc(F)cc2F)n1 [Cpd 203, N-(2,4-difluorophenyl)-4-(2-methylimidazo[1,2-a]pyridin-3-yl)-1,3-thiazol-2-amine]	< 500
CCOc1ccc(Nc2nc(-c3c(C)nc4ccccn34)cs2)cc1 [Cpd 204, N-(4-ethoxyphenyl)-4-(2-methylimidazo[1,2-a]pyridin-3-yl)-1,3-thiazol-2-amine]	< 500
Cc1ccc(Nc2nc(-c3c(C)nc4ccc(Cl)cn34)cs2)c(Br)c1 [Cpd 205, N-(2-bromo-4-methylphenyl)-4-(6-chloro-2-methylimidazo[1,2-a]pyridin-3-yl)-1,3-thiazol-2-amine]	< 500
CCN(CC)c1ccc(Nc2nc(-c3c(C)nc4ccc(Cl)cn34)cs2)cc1 [Cpd 206, N′-[4-(6-chloro-2-methylimidazo[1,2-a]pyridin-3-yl)-1,3-thiazol-2-yl]-N,N-diethylbenzene-1,4-diamine]	< 500
COc1ccc(Nc2nc(-c3c(C)nc4ccc(Cl)cn34)cs2)cc1OC [Cpd 207, 4-(6-chloro-2-methylimidazo[1,2-a]pyridin-3-yl)-N-(3,4-dimethoxyphenyl)-1,3-thiazol-2-amine]	< 500
COc1ccc(Nc2nc(-c3c(C)nc4ccc(Cl)cn34)cs2)c(Br)c1 [Cpd 208, N-(2-bromo-4-methoxyphenyl)-4-(6-chloro-2-methylimidazo[1,2-a]pyridin-3-yl)-1,3-thiazol-2-amine]	< 500
Cc1cccc(Nc2nc(-c3c(C)nc4ccc(Cl)cn34)cs2)c1 [Cpd 209, 4-(6-chloro-2-methylimidazo[1,2-a]pyridin-3-yl)-N-(3-methylphenyl)-1,3-thiazol-2-amine]	< 500
Cc1nc2ccc(Cl)cn2c1-c1csc(Nc2cccc(O)c2)n1 [Cpd 210, 3-{[4-(6-chloro-2-methylimidazo[1,2-a]pyridin-3-yl)-1,3-thiazol-2-yl]amino}phenol]	< 500
CC(=O)c1cccc(Nc2nc(-c3c(C)nc4ccc(Cl)cn34)cs2)c1 [Cpd 211, 1-(3-{[4-(6-chloro-2-methylimidazo[1,2-a]pyridin-3-yl)-1,3-thiazol-2-yl]amino}phenyl)ethanone]	< 500
